Results on 8 molecules are retold here after ChEMBL document CHEMBL1201862, “PubChem BioAssay data set” (2004).

Common to all, as to test: inhibition of tumour cell growth, NCI panel, 48 h
The test system of assay [1] is NCI/ADR-RES.
The subject of assay [2] is HOP-62.
Assay [3] deals with PC-3.
The test system of assay [4] is SNB-19.
Assay [5] relates to SN12C.
The subject of assay [6] is KM12.
In assay [7] the test system is UACC-62.
In assay [8] the test system is LOX IMVI.
The subject of assay [9] is HCC 2998.
Assay [10] deals with MDA-MB-231.
Assay [11] concerns CCRF-CEM.
The test system of assay [12] is SR.
For assay [13], the system named is SK-OV-3.
Assay [14] concerns EKVX.
Assay [15] concerns COLO 205.
Assay [16] concerns SK-MEL-28.
For assay [17], the system named is A549.
Assay [18] has as its system NCI-H23.
In assay [19] the test system is CAKI-1.
Assay [20] has as its system MCF7.

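Where inhibition never reached the appropriate level, the endpoint shown equals the highest concentration tested. Otherwise, values were interpolated linearly from a five-concentration, 48-hour dose response in 96-well plates. Abbreviation: GI50, concentration required for 50% inhibition of growth.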 Active and inactive are the calls of the source. Cut-off read from the data, not from the text of the source: active = GI50 up to about 1.1 µM and inactive = higher.

Take `CC(CCC(=O)O)(c1cc(Br)c(O)c(Br)c1)c1cc(Br)c(O)c(Br)c1`: the GI50 in assay [1] was 83.8 µM (inactive); in assay [2] it was 96.2 µM (inactive); in assay [3] it was 54.7 µM (inactive); in assay [4], 57.9 µM (inactive); in assay [5], > 100 µM (inactive); in assay [6], 45.1 µM (inactive). Also, the GI50 in [7] was 41 µM (inactive); in assay [8], 45.5 µM (inactive); in assay [9], 30.1 µM (inactive); in [10] it was 94.8 µM (inactive); in assay [11], < 0.01 µM (active); in assay [12] it was 39.1 µM (inactive). Moreover, the GI50 in assay [13] was > 100 µM (inactive); in [14], > 100 µM (inactive); in assay [15], > 100 µM (inactive); in assay [16] it was 45 µM (inactive); in assay [17], > 100 µM (inactive); in [18], 47.4 µM (inactive). Further, the GI50 in assay [19] was > 100 µM (inactive); in [20], 70.6 µM (inactive).

Consider `CCCCCCCC/C=C\CCCCCCCCNc1ccn(C2OC(COP(=O)(O)OC3CC(n4cc(F)c(=O)[nH]c4=O)OC3CO)C(O)C2O)c(=O)n1` (stereo not given), for which the GI50 in assay [1] is 3.36 µM (inactive); in assay [2], < 0.0255 µM (active); in [3] it was 28.7 µM (inactive); in [4], 0.376 µM (active); in assay [5], > 100 µM (inactive); in assay [6], 45 µM (inactive). The GI50 in assay [7] is 0.223 µM (active); in assay [8] it was 0.122 µM (active); in [9], > 100 µM (inactive); in assay [10], > 100 µM (inactive); in [11] it was < 0.0215 µM (active); in [12], 0.0159 µM (active). Further, the GI50 in [13] was 14.6 µM (inactive); in assay [14] it was > 100 µM (inactive); in assay [15] it was > 47.3 µM (inactive); in assay [16], 32.1 µM (inactive); in [17], < 0.0194 µM (active); in [18], 0.433 µM (active). In addition, the GI50 in [19] was 2.09 µM (inactive); in [20], < 0.0394 µM (active).

On to `O=C1CSC(c2ccccc2)N1c1ccc(-c2ccc(-n3c(-c4ccccc4)nc4ccccc4c3=O)cc2)cc1` (stereo not given), for which the GI50 in [1] was 43.5 µM (inactive); in assay [2], > 100 µM (inactive); in assay [3], 37.9 µM (inactive); in [4], 82.8 µM (inactive); in [5], > 100 µM (inactive); in [6] it was 26.2 µM (inactive). Further, the GI50 in assay [7] was 34.6 µM (inactive); in assay [8], 50.7 µM (inactive); in [9], 34.8 µM (inactive); in assay [10] it was 40.9 µM (inactive); in assay [11], 37.2 µM (inactive); in [12], 19.5 µM (inactive). In addition, the GI50 in assay [13] is > 100 µM (inactive); in [14], 55.3 µM (inactive); in [15], 38.2 µM (inactive); in [16], > 100 µM (inactive); in assay [17] it was 41.7 µM (inactive); in assay [18] it was 57.1 µM (inactive). Further, the GI50 in assay [19] is > 100 µM (inactive); in assay [20], 35.1 µM (inactive).

Turning to `CC(C(=O)[O-])S(=O)(=O)O.CCc1c2cc(OC)c(OC)cc2cc2c3cc(OC)c(OC)cc3cc[n+]12`, the GI50 in assay [1] is 38.1 µM (inactive); in [2], 41.7 µM (inactive); in assay [3], 17.9 µM (inactive); in assay [4] it was 3.94 µM (inactive); in assay [5], 6.62 µM (inactive); in assay [6], 17.8 µM (inactive). Moreover, the GI50 was 7.91 µM (inactive) in assay [7]; 27.5 µM (inactive) in assay [8]; 15 µM (inactive) in assay [9]; 20.1 µM (inactive) in [10]; 9.14 µM (inactive) in [11]; 13.3 µM (inactive) in assay [12]. In addition, the GI50 in [13] is 41.6 µM (inactive); in assay [14] it was 67.6 µM (inactive); in assay [15], 4.78 µM (inactive); in [16] it was 21.7 µM (inactive); in assay [17], 47.4 µM (inactive); in assay [18], 15.9 µM (inactive). Besides, the GI50 was 60.4 µM (inactive) in assay [19] and 9.89 µM (inactive) in assay [20].

`CN1CCN(c2ccc3nc(C4=C(O)C(=O)c5c(nc(CCl)n5C)C4=O)[nH]c3n2)CC1`: the GI50 in assay [1] was > 50 µM (inactive); in [2] it was 9.51 µM (inactive); in [3], 16.9 µM (inactive); in assay [4] it was 8.95 µM (inactive); in assay [5], 9.98 µM (inactive); in [6], 9.71 µM (inactive). In addition, the GI50 is 9.89 µM (inactive) in [7]; 8.15 µM (inactive) in assay [8]; 5.89 µM (inactive) in assay [9]; 10.9 µM (inactive) in assay [10]; > 50 µM (inactive) in assay [11]; 31.8 µM (inactive) in assay [12]. Also, the GI50 in [13] was 10.5 µM (inactive); in [14], 21.7 µM (inactive); in [15] it was 10.3 µM (inactive); in assay [16], 19.3 µM (inactive); in [17], 30 µM (inactive); in assay [18], 11.5 µM (inactive). Also, the values for the GI50 in assay [19] and in assay [20] were 13.5 µM (inactive) and 8.89 µM (inactive), respectively.

As for `CC1=C(C(=O)OCCO[N+](=O)[O-])C(c2ccccc2[N+](=O)[O-])C(C(=O)OC(C)C)=C(C)N1` (stereo not given), the GI50 in assay [1] is 16.8 µM (inactive); in [2] it was 18.2 µM (inactive); in [3], 8.17 µM (inactive); in assay [4], 18 µM (inactive); in [5], 17.6 µM (inactive); in assay [6] it was 13.8 µM (inactive). Further, the GI50 in assay [7] was 14.1 µM (inactive); in assay [8], 17.7 µM (inactive); in assay [9] it was 16 µM (inactive); in assay [10], 15.6 µM (inactive); in assay [11], 33.2 µM (inactive); in assay [12], 44.9 µM (inactive). Moreover, the GI50 in [13] was 21.2 µM (inactive); in assay [14], 18.3 µM (inactive); in assay [15], 15.1 µM (inactive); in assay [16] it was 16.5 µM (inactive); in [17], 16.3 µM (inactive); in assay [18], 20.7 µM (inactive). Besides, the GI50 is 17 µM (inactive) in assay [19] and 19.9 µM (inactive) in assay [20].

As for `O=c1c2c3c(sc2nc2n1N=CN(c1ccc(Cl)cc1)C2)CCCC3`, the GI50 in [1] is 74.8 µM (inactive); in assay [2], 50 µM (inactive); in assay [3], 15.1 µM (inactive); in assay [4], > 100 µM (inactive); in assay [5], > 100 µM (inactive); in assay [6], > 100 µM (inactive). Moreover, the GI50 in [7] was 56.8 µM (inactive); in [8], 36.3 µM (inactive); in assay [9], 2.26 µM (inactive); in assay [10], 16.7 µM (inactive); in [11], 17 µM (inactive); in assay [12], 15.7 µM (inactive). Also, the GI50 is > 100 µM (inactive) in assay [13]; 93.8 µM (inactive) in [14]; 35.8 µM (inactive) in [15]; > 100 µM (inactive) in assay [16]; 38.4 µM (inactive) in [17]; > 100 µM (inactive) in assay [18]. Moreover, the GI50 in assay [19] is 23.8 µM (inactive); in assay [20] it was > 100 µM (inactive).

With `Cc1ccc(C(=O)c2[nH]c(Nc3ccc(Cl)cc3)c(C(=S)Nc3ccccc3)c2N)cc1`, the GI50 is 4.37 µM (inactive) in assay [1]; 4.41 µM (inactive) in assay [2]; 6.84 µM (inactive) in [3]; 5.61 µM (inactive) in [4]; 13.1 µM (inactive) in assay [5]; 5.26 µM (inactive) in [6]. Moreover, the GI50 in assay [7] is 14.4 µM (inactive); in assay [8], 3.91 µM (inactive); in assay [9], 2.29 µM (inactive); in [10] it was 10.1 µM (inactive); in assay [11], 8.65 µM (inactive); in assay [12], 2.05 µM (inactive). The GI50 in assay [13] was 14.2 µM (inactive); in assay [14] it was 5.48 µM (inactive); in assay [15] it was 1.45 µM (inactive); in assay [16], 4.21 µM (inactive); in assay [17] it was 2.27 µM (inactive); in assay [18], 3.14 µM (inactive). Moreover, the GI50 in [19] is 8.67 µM (inactive); in [20], 12.5 µM (inactive).
